Source: US9249125B2, “Pyrazole derivatives as p38 MAP inhibitors” (RESPIVERT LIMITED, priority 2012, dated 2016)
pEC50, pIC50: −log10 of the molar value.

Tests used:
Syk = Syk (Homo sapiens (Human), UniProt P43405); assay: Syk enzyme inhibition (FRET, Z-LYTE); assay type: biochemical
Procedure, shortened: (§1)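 Z-LYTE FRET kinase assay: enzyme (3000 or 2000 ng/mL stock, respectively) preincubated 2 h at RT with compound (4–0.004 μg/mL stocks), then FRET peptide plus ATP (800 μM stock for c-Src, 60 μM for Syk) added for 1 h. Protease development 1 h; phosphorylation from coumarin/fluorescein emission ratio.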

[1] = test system: LPS-induced IL-8 release in d-U937 cells; assay: LPS-induced IL-8 release in d-U937 cells; assay type: cell-based; settings: Homo sapiens, dU937, read-out: LPS Induced Release of Cytokine in d-937 Cells IL-8 IC50
Procedure, shortened: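 PMA (100 ng/mL, 48–72 hr)-differentiated U937; cpd 2 hr pre-inc; LPS 0.1 μg/mL (E. coli O111:B4) 4 hr. Supernatant TNFα/IL-8 by sandwich ELISA. IL-8 inhibition per concentration vs vehicle; REC50 from curve fit.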

GSK3α = GSK3α (Homo sapiens (Human), UniProt P49840); assay: GSK 3α enzyme inhibition (FRET, Z-LYTE); assay type: biochemical
Procedure, shortened: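 GSK3α (500 ng/mL stock) was preincubated 2 hr at RT with compound (4 to 0.004 μg/mL stocks), then FRET peptide (8 μM stock) and ATP (40 μM stock) added for 1 hr. Protease development for 1 hr cleaved unphosphorylated peptide; coumarin/fluorescein emission ratio reported phosphorylation.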

p38 MAPKα = p38 MAPKα (Homo sapiens (Human), UniProt Q16539); assay: p38 MAPKα enzyme inhibition (FRET, Z-LYTE); assay type: biochemical
[2] = test system: LPS-induced TNFα release in d-U937 cells; assay: LPS-induced TNFα release in d-U937 cells; assay type: cell-based; settings: Homo sapiens, dU937, relative to 10 μg/mL BIRB796, read-out: LPS Induced Release of Cytokine in d-937 Cells TNFα REC50
Procedure, shortened: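 First, U937 monocytes undergo PMA treatment (100 ng/mL) for 48 to 72 hr to become macrophage-type. Next, compound at final concentrations is added for 2 hr, followed by LPS at 0.1 μg/mL for 4 hr. Finally, cytokines in the supernatant are quantified by ELISA against vehicle-treated cells.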

cSrc = cSrc (Homo sapiens (Human), UniProt P12931); assay: c-Src enzyme inhibition (FRET, Z-LYTE); assay type: biochemical
Procedure, shortened: as §1

d-U937 cells = assay: Cell viability: MTT assay; assay type: cell-based, human; settings: 1 μg/mL
Procedure, shortened: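 Differentiated U937 cells were exposed to compound at 1 or 10 μg/mL either 4 h in 5% FCS RPMI1640 or 24 h in 10% FCS RPMI1640, then given MTT for 1 h, DMSO-solubilised and read at 550 nm. Percent viability loss versus 0.5% DMSO vehicle; apparent gains appear negative.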

[3] = test system: Poly I:C-induced ICAM-1 expression in BEAS2B cells; assay: Poly I:C-induced ICAM-1 expression in BEAS2B cells; assay type: cell-based; settings: Homo sapiens, BEAS-2B, read-out: Poly IC induced ICAM1 in BEAS2B IC50
Procedure, shortened: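 BEAS2B human bronchial epithelial cells pre-incubated with compound for 2 hr, then transfected with 1 μg/mL poly I:C plus Oligofectamine. At 18 hr, surface ICAM-1 measured by cell-based ELISA (HRP, OD450–655). Signal corrected for cell number by crystal violet OD595.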

Sequence of GSK3α (P49840 whole entry): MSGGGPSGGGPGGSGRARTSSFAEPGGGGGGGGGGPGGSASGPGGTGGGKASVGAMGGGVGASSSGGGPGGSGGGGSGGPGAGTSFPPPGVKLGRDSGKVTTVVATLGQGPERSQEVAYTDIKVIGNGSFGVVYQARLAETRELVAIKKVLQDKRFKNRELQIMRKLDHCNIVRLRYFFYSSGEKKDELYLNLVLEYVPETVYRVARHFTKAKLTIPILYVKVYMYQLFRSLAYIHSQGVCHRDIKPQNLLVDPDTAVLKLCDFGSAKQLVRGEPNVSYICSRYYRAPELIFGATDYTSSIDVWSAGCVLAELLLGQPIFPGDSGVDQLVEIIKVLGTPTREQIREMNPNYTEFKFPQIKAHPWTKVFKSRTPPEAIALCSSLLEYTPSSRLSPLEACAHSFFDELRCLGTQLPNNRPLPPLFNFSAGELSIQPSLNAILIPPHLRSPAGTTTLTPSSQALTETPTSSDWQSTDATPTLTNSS
Sequence of p38 MAPKα (Q16539 whole entry): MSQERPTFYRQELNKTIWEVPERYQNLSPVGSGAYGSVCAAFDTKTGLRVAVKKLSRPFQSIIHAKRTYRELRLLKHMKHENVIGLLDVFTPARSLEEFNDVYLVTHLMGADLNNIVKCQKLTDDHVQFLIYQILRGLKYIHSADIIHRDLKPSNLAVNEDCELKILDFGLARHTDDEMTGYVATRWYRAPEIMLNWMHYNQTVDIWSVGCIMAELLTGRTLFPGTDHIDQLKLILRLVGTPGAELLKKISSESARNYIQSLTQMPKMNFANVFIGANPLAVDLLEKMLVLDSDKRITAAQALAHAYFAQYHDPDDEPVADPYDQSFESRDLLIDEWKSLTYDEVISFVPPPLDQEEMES
Sequence of cSrc (P12931 whole entry, looked up): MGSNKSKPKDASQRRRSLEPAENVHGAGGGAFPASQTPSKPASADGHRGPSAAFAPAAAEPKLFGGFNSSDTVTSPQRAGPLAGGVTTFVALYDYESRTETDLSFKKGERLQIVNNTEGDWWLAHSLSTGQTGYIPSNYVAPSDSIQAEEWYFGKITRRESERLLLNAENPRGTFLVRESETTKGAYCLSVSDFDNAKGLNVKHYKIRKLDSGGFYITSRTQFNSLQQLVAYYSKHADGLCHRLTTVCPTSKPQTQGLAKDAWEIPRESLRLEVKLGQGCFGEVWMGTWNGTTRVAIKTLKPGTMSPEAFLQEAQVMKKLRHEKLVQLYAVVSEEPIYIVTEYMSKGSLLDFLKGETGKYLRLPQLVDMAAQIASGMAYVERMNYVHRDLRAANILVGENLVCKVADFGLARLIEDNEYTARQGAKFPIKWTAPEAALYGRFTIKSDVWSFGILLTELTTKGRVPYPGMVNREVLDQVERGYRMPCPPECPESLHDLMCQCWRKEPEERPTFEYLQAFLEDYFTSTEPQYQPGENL

Row | pIC50 (Syk) | pIC50 [1] | pIC50 (GSK3α) | pIC50 (p38 MAPKα) | pEC50 [2] | pIC50 (cSrc) | SMILES | MTT Assay Cell viability at time point in d-U937 cells 4 h (d-U937 cells) | MTT Assay Cell viability at time point in d-U937 cells 24 h (d-U937 cells) | pIC50 [3]
1 | 9.00 | 6.72 | 6.22 | 7.57 | 8.44 | > 9.00 | CC(C)(C)c1cc(NC(=O)Nc2ccc(Oc3ccnc(Nc4ccc5c(cnn5CCN5CCOCC5)c4)n3)c3ccccc23)n(-c2ccc(OCCN3CCOCC3)cc2)n1 [Example 74, 1-(3-(tert-butyl)-1-(4-(2-morpholinoethoxy)phenyl)-1H-pyrazol-5-yl)-3-(4-((2-((1-(2-morpholinoethyl)-1H-indazol-5-yl)amino)pyrimidin-4-yl)oxy)naphthalen-1-yl)urea] | −ve (−ve and +ve indicate that the value is below and above respectively, the no significant effect threshold, defined as 30% inhibition at 1 μg/mL at the time point indicated.) | −ve (−ve and +ve indicate that the value is below and above respectively, the no significant effect threshold, defined as 30% inhibition at 1 μg/mL at the time point indicated.) | 8.57
2 | > 9.00 | 7.36 | 5.31 | 7.44 | 7.85 | > 9.00 | Cc1nc2cc(Nc3nccc(Oc4ccc(NC(=O)Nc5cc(C(C)(C)C)nn5-c5ccc(OCCN6CCOCC6)cc5)c5ccccc45)n3)ccc2[nH]1 [Example 75, 1-(3-(tert-butyl)-1-(4-(2-morpholinoethoxy)phenyl)-1H-pyrazol-5-yl)-3-(4-((2-((2-methyl-1H-benzo[d]imidazol-6-yl)amino)pyrimidin-4-yl)oxy)naphthalen-1-yl)urea] | −ve (−ve and +ve indicate that the value is below and above respectively, the no significant effect threshold, defined as 30% inhibition at 1 μg/mL at the time point indicated.) | −ve (−ve and +ve indicate that the value is below and above respectively, the no significant effect threshold, defined as 30% inhibition at 1 μg/mL at the time point indicated.) | 7.79
3 | 7.47 | 9.52 | 6.11 | 7.32 | 7.90 | 7.82 | CC(C)(C)c1cc(NC(=O)Nc2ccc(Oc3ccnc(Nc4ccc5oc(=O)[nH]c5c4)n3)c3ccccc23)n(-c2ccc(OCCN3CCOCC3)cc2)n1 [Example 76, 1-(3-(tert-butyl)-1-(4-(2-morpholinoethoxy)phenyl)-1H-pyrazol-5-yl)-3-(4-((2-((2-oxo-2,3-dihydrobenzo[d]oxazol-5-yl)amino)pyrimidin-4-yl)oxy)naphthalen-1-yl)urea] | −ve (−ve and +ve indicate that the value is below and above respectively, the no significant effect threshold, defined as 30% inhibition at 1 μg/mL at the time point indicated.) | −ve (−ve and +ve indicate that the value is below and above respectively, the no significant effect threshold, defined as 30% inhibition at 1 μg/mL at the time point indicated.) | 8.66
4 | 7.03 | 8.51 | 5.64 | 6.38 | 8.46 | 7.57 | CC(C)(C)c1cc(NC(=O)Nc2ccc(Oc3ccnc(Nc4ccc5[nH]c(=O)oc5c4)n3)c3ccccc23)n(-c2ccc(OCCN3CCOCC3)cc2)n1 [Example 77, 1-(3-(tert-butyl)-1-(4-(2-morpholinoethoxy)phenyl)-1H-pyrazol-5-yl)-3-(4-((2-((2-oxo-2,3-dihydrobenzo[d]oxazol-6-yl)amino)pyrimidin-4-yl)oxy)naphthalen-1-yl)urea] | −ve (−ve and +ve indicate that the value is below and above respectively, the no significant effect threshold, defined as 30% inhibition at 1 μg/mL at the time point indicated.) | −ve (−ve and +ve indicate that the value is below and above respectively, the no significant effect threshold, defined as 30% inhibition at 1 μg/mL at the time point indicated.) | 8.07
5 | 7.48 | 8.13 | 5.62 | 6.86 | 8.33 | 8.10 | CC(C)(C)c1cc(NC(=O)Nc2ccc(Oc3ccnc(Nc4ccc5sncc5c4)n3)c3ccccc23)n(-c2ccc(OCCN3CCOCC3)cc2)n1 [Example 78, 1-(4-((2-(benzo[d]isothiazol-5-ylamino)pyrimidin-4-yl)oxy)naphthalen-1-yl)-3-(3-(tert-butyl)-1-(4-(2-morpholinoethoxy)phenyl)-1H-pyrazol-5-yl)urea] | −ve (−ve and +ve indicate that the value is below and above respectively, the no significant effect threshold, defined as 30% inhibition at 1 μg/mL at the time point indicated.) | −ve (−ve and +ve indicate that the value is below and above respectively, the no significant effect threshold, defined as 30% inhibition at 1 μg/mL at the time point indicated.) | 8.10
6 | 7.44 | 7.91 | 6.14 | 6.83 | 7.98 | 8.10 | CC(C)(C)c1cc(NC(=O)Nc2ccc(Oc3ccnc(Nc4ccc5scnc5c4)n3)c3ccccc23)n(-c2ccc(OCCN3CCOCC3)cc2)n1 [Example 79, 1-(4-((2-(benzo[d]thiazol-5-ylamino)pyrimidin-4-yl)oxy)naphthalen-1-yl)-3-(3-(tert-butyl)-1-(4-(2-morpholinoethoxy)phenyl)-1H-pyrazol-5-yl)urea] | −ve (−ve and +ve indicate that the value is below and above respectively, the no significant effect threshold, defined as 30% inhibition at 1 μg/mL at the time point indicated.) | −ve (−ve and +ve indicate that the value is below and above respectively, the no significant effect threshold, defined as 30% inhibition at 1 μg/mL at the time point indicated.) | 8.15
7 | 7.60 | 8.72 | 6.34 | 7.07 | 8.82 | 8.05 | CC(C)(C)c1cc(NC(=O)Nc2ccc(Oc3ccnc(Nc4ccc5ncsc5c4)n3)c3ccccc23)n(-c2ccc(OCCN3CCOCC3)cc2)n1 [Example 80, 1-(4-((2-(benzo[d]thiazol-6-ylamino)pyrimidin-4-yl)oxy)naphthalen-1-yl)-3-(3-(tert-butyl)-1-(4-(2-morpholinoethoxy)phenyl)-1H-pyrazol-5-yl)urea] | −ve (−ve and +ve indicate that the value is below and above respectively, the no significant effect threshold, defined as 30% inhibition at 1 μg/mL at the time point indicated.) | −ve (−ve and +ve indicate that the value is below and above respectively, the no significant effect threshold, defined as 30% inhibition at 1 μg/mL at the time point indicated.) | 8.72
8 | 7.85 | 8.80 | 6.19 | 7.18 | 8.85 | 8.30 | CC(C)(C)c1cc(NC(=O)Nc2ccc(Oc3ccnc(Nc4ccc5[nH]nnc5c4)n3)c3ccccc23)n(-c2ccc(OCCN3CCOCC3)cc2)n1 [Example 81, 1-(4-((2-((1H-benzo[d][1,2,3]triazol-5-yl)amino)pyrimidin-4-yl)oxy)naphthalen-1-yl)-3-(3-(tert-butyl)-1-(4-(2-morpholinoethoxy)phenyl)-1H-pyrazol-5-yl)urea] | −ve (−ve and +ve indicate that the value is below and above respectively, the no significant effect threshold, defined as 30% inhibition at 1 μg/mL at the time point indicated.) | −ve (−ve and +ve indicate that the value is below and above respectively, the no significant effect threshold, defined as 30% inhibition at 1 μg/mL at the time point indicated.) | 8.00
